Experimental data reported in publication PMC3637861 (Journal of muscle research and cell motility, 2013).

Target: Recombinant chicken cardiac troponin C (cTnC) (Gallus gallus, UniProt P09860)
Experiment: intrinsic tyrosine fluorescence quenching titration, hyperbolic plus linear fit
Assay type: binding

Kd: 65 µM
SMILES: O=C(O[C@@H]1Cc2c(O)cc(O)cc2O[C@@H]1c1cc(O)c(O)c(O)c1)c1cc(O)c(O)c(O)c1 [EGCg]
